Source: the kinase profiling compilation of Christmann-Franck et al. (2016)

Columns and labels:
Assay in all cases: radiometric filter-binding kinase assay, Kinase HotSpot
Settings in all cases: compound 0.5 µM; ATP 10 µM
STK24 (human) = STK24 (human) (UniProt Q9Y6E0)
LCK (human) = LCK (human) (UniProt P06239)
STK39 (human) = STK39 (human) (UniProt Q9UEW8)
MAPKAPK3 (human) = MAPKAPK3 (human) (UniProt Q16644)
TAOK2 (human) = TAOK2 (human) (UniProt Q9UL54)
CDK7 CCNH MNAT1 (human) = CDK7 CCNH MNAT1 (human) (UniProt P50613+P51948+P51946)
MAP4K2 (human) = MAP4K2 (human) (UniProt Q12851)
PAK7 (human) = PAK7 (human) (UniProt Q9P286)
ULK1 (human) = ULK1 (human) (UniProt O75385)
STK16 (human) = STK16 (human) (UniProt O75716)
TLK2 (human) = TLK2 (human) (UniProt Q86UE8)
MAPK12 (human) = MAPK12 (human) (UniProt P53778)
MAP3K11 (human) = MAP3K11 (human) (UniProt Q16584)
CDK4 CCND3 (human) = CDK4 CCND3 (human) (UniProt P30281+P11802)
SRC (human) = SRC (human) (UniProt P12931)
PRKCB2 (human) = PRKCB2 (human) (UniProt P05771)
PTK2B (human) = PTK2B (human) (UniProt Q14289)
AKT2 (human) = AKT2 (human) (UniProt P31751)
MAPK8 (human) = MAPK8 (human) (UniProt P45983)
AXL (human) = AXL (human) (UniProt P30530)
PRKCD (human) = PRKCD (human) (UniProt Q05655)
LTK (human) = LTK (human) (UniProt P29376)
BRAF (human) = BRAF (human) (UniProt P15056)
MYO3B (human) = MYO3B (human) (UniProt Q8WXR4)
MET (human) = MET (human) (UniProt P08581)
TSSK1B (human) = TSSK1B (human) (UniProt Q9BXA7)
PAK1 (human) = PAK1 (human) (UniProt Q13153)
ULK3 (human) = ULK3 (human) (UniProt Q6PHR2)
PASK (human) = PASK (human) (UniProt Q96RG2)
CLK4 (human) = CLK4 (human) (UniProt Q9HAZ1)
OXSR1 (human) = OXSR1 (human) (UniProt O95747)
CDK1 CCNA2 (human) = CDK1 CCNA2 (human) (UniProt P06493+P20248)
MUSK (human) = MUSK (human) (UniProt O15146)
STK38 (human) = STK38 (human) (UniProt Q15208)
RPS6KB1 (human) = RPS6KB1 (human) (UniProt P23443)
PRKX (human) = PRKX (human) (UniProt P51817)
PRKACG (human) = PRKACG (human) (UniProt P22612)
FER (human) = FER (human) (UniProt P16591)
EPHA6 (human) = EPHA6 (human) (UniProt Q9UF33)
CSNK1E (human) = CSNK1E (human) (UniProt P49674)
IGF1R (human) = IGF1R (human) (UniProt P08069)

Sequence of AXL (human) (P30530 whole entry, looked up): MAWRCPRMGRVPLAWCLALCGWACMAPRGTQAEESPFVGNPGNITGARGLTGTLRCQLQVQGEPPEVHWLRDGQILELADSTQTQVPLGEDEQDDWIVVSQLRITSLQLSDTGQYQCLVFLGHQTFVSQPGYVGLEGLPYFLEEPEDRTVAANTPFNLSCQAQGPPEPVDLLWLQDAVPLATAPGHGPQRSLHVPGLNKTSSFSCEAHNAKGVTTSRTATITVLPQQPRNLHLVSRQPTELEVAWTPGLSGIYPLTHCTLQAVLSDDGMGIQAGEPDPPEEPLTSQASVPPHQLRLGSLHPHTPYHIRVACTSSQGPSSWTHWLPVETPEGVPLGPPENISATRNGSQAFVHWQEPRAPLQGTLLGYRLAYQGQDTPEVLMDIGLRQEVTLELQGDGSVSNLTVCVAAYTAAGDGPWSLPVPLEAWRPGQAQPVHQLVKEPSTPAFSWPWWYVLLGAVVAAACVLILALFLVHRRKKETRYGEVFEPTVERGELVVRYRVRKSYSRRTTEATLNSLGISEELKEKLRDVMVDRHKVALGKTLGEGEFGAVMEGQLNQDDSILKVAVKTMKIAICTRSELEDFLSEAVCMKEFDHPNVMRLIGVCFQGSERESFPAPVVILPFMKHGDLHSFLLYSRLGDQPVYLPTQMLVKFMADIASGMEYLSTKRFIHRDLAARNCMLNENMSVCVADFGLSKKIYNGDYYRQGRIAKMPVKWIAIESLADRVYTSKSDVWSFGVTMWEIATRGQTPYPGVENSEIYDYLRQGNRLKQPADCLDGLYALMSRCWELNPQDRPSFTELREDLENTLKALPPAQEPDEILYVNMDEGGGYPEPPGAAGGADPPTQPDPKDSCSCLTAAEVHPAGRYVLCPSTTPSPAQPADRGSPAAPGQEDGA
Sequence of RPS6KB1 (human) (P23443 whole entry, looked up): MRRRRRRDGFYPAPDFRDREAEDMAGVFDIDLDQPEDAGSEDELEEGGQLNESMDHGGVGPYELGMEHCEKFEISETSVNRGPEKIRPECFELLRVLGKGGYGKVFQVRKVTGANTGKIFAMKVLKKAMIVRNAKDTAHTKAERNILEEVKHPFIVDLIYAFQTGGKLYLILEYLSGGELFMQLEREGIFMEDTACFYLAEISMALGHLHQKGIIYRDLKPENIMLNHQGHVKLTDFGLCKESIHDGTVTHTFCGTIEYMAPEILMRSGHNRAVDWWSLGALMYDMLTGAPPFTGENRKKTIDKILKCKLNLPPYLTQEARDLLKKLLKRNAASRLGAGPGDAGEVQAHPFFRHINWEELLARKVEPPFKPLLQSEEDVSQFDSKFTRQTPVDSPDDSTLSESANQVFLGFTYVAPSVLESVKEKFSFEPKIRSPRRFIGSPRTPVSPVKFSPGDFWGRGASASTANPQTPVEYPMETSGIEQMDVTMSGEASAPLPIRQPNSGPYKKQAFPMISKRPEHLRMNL
Sequence of MAPK8 (human) (P45983 whole entry, looked up): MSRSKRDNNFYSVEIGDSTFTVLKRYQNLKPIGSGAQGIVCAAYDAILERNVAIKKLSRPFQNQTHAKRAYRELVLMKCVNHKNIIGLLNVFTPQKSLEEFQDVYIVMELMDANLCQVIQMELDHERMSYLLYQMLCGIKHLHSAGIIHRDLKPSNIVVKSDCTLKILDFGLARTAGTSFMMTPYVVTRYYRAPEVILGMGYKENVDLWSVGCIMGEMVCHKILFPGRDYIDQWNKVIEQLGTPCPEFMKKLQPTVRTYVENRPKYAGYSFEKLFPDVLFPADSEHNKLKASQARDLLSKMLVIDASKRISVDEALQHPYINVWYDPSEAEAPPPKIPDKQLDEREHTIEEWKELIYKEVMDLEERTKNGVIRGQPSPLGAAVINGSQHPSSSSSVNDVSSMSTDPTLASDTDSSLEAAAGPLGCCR
Sequence of CDK7 CCNH MNAT1 (human) (P50613 whole entry, looked up): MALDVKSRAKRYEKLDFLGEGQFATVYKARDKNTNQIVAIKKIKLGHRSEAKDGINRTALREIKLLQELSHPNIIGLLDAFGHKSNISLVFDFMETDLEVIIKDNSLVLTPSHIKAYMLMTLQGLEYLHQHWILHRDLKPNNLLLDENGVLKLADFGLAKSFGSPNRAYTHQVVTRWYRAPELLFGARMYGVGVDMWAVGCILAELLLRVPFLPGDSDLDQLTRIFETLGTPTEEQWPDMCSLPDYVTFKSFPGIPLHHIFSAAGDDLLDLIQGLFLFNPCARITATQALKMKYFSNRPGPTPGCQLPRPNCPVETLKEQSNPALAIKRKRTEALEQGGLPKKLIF
Sequence of CDK7 CCNH MNAT1 (human) (P51946 whole entry, looked up): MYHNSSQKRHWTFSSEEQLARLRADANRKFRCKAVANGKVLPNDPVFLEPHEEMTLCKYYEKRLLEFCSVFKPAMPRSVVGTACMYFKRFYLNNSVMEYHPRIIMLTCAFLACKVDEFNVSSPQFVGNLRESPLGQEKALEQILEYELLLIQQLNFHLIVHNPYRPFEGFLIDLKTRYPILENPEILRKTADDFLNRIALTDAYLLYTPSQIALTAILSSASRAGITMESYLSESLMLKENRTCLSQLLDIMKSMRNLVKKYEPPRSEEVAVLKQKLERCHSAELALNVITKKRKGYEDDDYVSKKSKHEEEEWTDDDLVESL
Sequence of CDK7 CCNH MNAT1 (human) (P51948 whole entry, looked up): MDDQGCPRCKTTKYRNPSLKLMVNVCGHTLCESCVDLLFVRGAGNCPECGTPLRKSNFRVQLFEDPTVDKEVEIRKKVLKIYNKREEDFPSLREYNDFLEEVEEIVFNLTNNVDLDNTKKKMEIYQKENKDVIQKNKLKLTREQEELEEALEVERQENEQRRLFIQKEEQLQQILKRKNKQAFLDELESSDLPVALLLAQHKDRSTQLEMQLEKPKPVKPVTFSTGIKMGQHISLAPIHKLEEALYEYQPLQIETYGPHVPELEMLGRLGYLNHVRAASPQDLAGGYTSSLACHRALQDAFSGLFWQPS
Sequence of PRKCB2 (human) (P05771 whole entry, looked up): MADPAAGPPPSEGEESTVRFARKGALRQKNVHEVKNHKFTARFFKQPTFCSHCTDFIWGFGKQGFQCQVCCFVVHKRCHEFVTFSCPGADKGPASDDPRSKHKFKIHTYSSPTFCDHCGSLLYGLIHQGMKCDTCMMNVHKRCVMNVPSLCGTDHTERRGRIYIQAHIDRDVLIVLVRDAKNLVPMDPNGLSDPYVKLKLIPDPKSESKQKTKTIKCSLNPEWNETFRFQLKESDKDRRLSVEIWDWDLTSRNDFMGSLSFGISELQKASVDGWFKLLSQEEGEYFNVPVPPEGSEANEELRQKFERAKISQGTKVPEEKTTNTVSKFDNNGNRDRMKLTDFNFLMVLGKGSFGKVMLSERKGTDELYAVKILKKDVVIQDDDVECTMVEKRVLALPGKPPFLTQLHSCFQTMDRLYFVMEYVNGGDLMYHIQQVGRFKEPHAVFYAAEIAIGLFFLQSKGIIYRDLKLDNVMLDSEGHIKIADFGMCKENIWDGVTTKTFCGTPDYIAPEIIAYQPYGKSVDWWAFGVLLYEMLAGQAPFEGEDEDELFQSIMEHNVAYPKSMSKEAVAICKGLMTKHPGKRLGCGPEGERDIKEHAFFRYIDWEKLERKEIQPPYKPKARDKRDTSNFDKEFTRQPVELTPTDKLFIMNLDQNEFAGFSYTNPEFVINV
Sequence of LTK (human) (P29376 whole entry, looked up): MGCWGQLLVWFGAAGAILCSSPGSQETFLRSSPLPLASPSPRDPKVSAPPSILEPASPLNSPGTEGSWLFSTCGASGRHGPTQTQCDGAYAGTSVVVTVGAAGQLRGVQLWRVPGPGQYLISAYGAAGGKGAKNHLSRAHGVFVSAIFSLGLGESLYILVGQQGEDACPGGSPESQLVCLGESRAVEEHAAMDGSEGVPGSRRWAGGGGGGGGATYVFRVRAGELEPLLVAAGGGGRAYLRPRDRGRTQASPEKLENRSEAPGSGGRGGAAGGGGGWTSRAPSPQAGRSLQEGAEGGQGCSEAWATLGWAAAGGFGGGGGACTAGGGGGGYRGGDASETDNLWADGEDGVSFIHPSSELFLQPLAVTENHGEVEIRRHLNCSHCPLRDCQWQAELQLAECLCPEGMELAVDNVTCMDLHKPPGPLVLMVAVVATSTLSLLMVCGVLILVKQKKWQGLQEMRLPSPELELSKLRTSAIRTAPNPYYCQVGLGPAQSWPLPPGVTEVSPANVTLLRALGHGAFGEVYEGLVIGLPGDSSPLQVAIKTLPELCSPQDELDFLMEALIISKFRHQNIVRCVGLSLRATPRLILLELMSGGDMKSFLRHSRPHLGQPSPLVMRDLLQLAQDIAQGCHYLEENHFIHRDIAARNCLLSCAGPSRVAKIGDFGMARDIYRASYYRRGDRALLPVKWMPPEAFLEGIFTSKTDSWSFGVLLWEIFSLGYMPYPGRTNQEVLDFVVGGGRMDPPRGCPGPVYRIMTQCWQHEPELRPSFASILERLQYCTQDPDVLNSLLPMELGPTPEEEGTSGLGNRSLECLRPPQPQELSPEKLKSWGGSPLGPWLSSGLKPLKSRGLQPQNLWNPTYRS
Sequence of PRKX (human) (P51817 whole entry, looked up): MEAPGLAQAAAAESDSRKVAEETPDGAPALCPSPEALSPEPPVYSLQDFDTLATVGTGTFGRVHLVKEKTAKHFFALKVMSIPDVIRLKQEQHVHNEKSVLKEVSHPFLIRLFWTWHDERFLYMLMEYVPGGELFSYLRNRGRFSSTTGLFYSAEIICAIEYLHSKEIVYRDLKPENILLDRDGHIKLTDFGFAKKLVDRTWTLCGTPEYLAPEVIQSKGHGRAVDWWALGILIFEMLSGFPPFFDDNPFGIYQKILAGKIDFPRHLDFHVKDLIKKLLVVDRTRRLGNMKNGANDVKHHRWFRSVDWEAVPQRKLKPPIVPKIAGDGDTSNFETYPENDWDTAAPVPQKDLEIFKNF

Structure (SMILES): O=C(CCCc1ccc(-c2ccccc2F)cc1)Nc1ccc(O)cc1
- residual activity (STK24 (human)): 88.9%
- residual activity (LCK (human)): 95.5%
- residual activity (STK39 (human)): 95.4%
- residual activity (MAPKAPK3 (human)): 91%
- residual activity (TAOK2 (human)): 98.4%
- residual activity (CDK7 CCNH MNAT1 (human)): 101%
- residual activity (MAP4K2 (human)): 104%
- residual activity (PAK7 (human)): 90.3%
- residual activity (ULK1 (human)): 106%
- residual activity (STK16 (human)): 111%
- residual activity (TLK2 (human)): 84.1%
- residual activity (MAPK12 (human)): 104%
- residual activity (MAP3K11 (human)): 101%
- residual activity (CDK4 CCND3 (human)): 110%
- residual activity (SRC (human)): 93.7%
- residual activity (PRKCB2 (human)): 102%
- residual activity (PTK2B (human)): 98.8%
- residual activity (AKT2 (human)): 101%
- residual activity (MAPK8 (human)): 103%
- residual activity (AXL (human)): 91.4%
- residual activity (PRKCD (human)): 110%
- residual activity (LTK (human)): 106%
- residual activity (BRAF (human)): 93%
- residual activity (MYO3B (human)): 96.3%
- residual activity (MET (human)): 114%
- residual activity (TSSK1B (human)): 107%
- residual activity (PAK1 (human)): 95.4%
- residual activity (ULK3 (human)): 103%
- residual activity (PASK (human)): 101%
- residual activity (CLK4 (human)): 103%
- residual activity (OXSR1 (human)): 102%
- residual activity (CDK1 CCNA2 (human)): 93.7%
- residual activity (MUSK (human)): 93.1%
- residual activity (STK38 (human)): 109%
- residual activity (RPS6KB1 (human)): 102%
- residual activity (PRKX (human)): 106%
- residual activity (PRKACG (human)): 93.5%
- residual activity (FER (human)): 103%
- residual activity (EPHA6 (human)): 89.6%
- residual activity (CSNK1E (human)): 99.4%
- residual activity (IGF1R (human)): 106%

Structure (SMILES): O=C1NC(=O)/C(=C\c2ccc3nccnc3c2)S1
- residual activity (STK24 (human)): 93.2%
- residual activity (LCK (human)): 98.6%
- residual activity (STK39 (human)): 104%
- residual activity (MAPKAPK3 (human)): 104%
- residual activity (TAOK2 (human)): 89.9%
- residual activity (CDK7 CCNH MNAT1 (human)): 85.2%
- residual activity (MAP4K2 (human)): 86.1%
- residual activity (PAK7 (human)): 97.4%
- residual activity (ULK1 (human)): 100%
- residual activity (STK16 (human)): 91.9%
- residual activity (TLK2 (human)): 95.2%
- residual activity (MAPK12 (human)): 96.6%
- residual activity (MAP3K11 (human)): 97.5%
- residual activity (CDK4 CCND3 (human)): 93.9%
- residual activity (SRC (human)): 102%
- residual activity (PRKCB2 (human)): 103%
- residual activity (PTK2B (human)): 106%
- residual activity (AKT2 (human)): 101%
- residual activity (MAPK8 (human)): 91.5%
- residual activity (AXL (human)): 112%
- residual activity (PRKCD (human)): 94.4%
- residual activity (LTK (human)): 94.7%
- residual activity (BRAF (human)): 95.1%
- residual activity (MYO3B (human)): 83.8%
- residual activity (MET (human)): 91.2%
- residual activity (TSSK1B (human)): 78.6%
- residual activity (PAK1 (human)): 96%
- residual activity (ULK3 (human)): 102%
- residual activity (PASK (human)): 87.7%
- residual activity (CLK4 (human)): 47.5%
- residual activity (OXSR1 (human)): 98.4%
- residual activity (CDK1 CCNA2 (human)): 90.7%
- residual activity (MUSK (human)): 16.2%
- residual activity (STK38 (human)): 99.6%
- residual activity (RPS6KB1 (human)): 91.2%
- residual activity (PRKX (human)): 89.2%
- residual activity (PRKACG (human)): 99.6%
- residual activity (FER (human)): 96.2%
- residual activity (EPHA6 (human)): 82.4%
- residual activity (CSNK1E (human)): 92.3%
- residual activity (IGF1R (human)): 92%

Structure (SMILES): COc1cc2ncnc(N3CCN(C(=O)Nc4ccc(Oc5ccccc5)cc4)CC3)c2cc1OC
- residual activity (STK24 (human)): 99.6%
- residual activity (LCK (human)): 92.3%
- residual activity (STK39 (human)): 83.2%
- residual activity (MAPKAPK3 (human)): 94.6%
- residual activity (TAOK2 (human)): 96.3%
- residual activity (CDK7 CCNH MNAT1 (human)): 103%
- residual activity (MAP4K2 (human)): 94.7%
- residual activity (PAK7 (human)): 96.8%
- residual activity (ULK1 (human)): 110%
- residual activity (STK16 (human)): 94.2%
- residual activity (TLK2 (human)): 94.7%
- residual activity (MAPK12 (human)): 94.7%
- residual activity (MAP3K11 (human)): 97%
- residual activity (CDK4 CCND3 (human)): 90.3%
- residual activity (SRC (human)): 102%
- residual activity (PRKCB2 (human)): 102%
- residual activity (PTK2B (human)): 91.2%
- residual activity (AKT2 (human)): 87.6%
- residual activity (MAPK8 (human)): 90.5%
- residual activity (AXL (human)): 91.7%
- residual activity (PRKCD (human)): 84.3%
- residual activity (LTK (human)): 89.8%
- residual activity (BRAF (human)): 92.6%
- residual activity (MYO3B (human)): 95.4%
- residual activity (MET (human)): 107%
- residual activity (TSSK1B (human)): 65.2%
- residual activity (PAK1 (human)): 91.8%
- residual activity (ULK3 (human)): 100%
- residual activity (PASK (human)): 97.7%
- residual activity (CLK4 (human)): 65.6%
- residual activity (OXSR1 (human)): 119%
- residual activity (CDK1 CCNA2 (human)): 92.3%
- residual activity (MUSK (human)): 87.4%
- residual activity (STK38 (human)): 96.9%
- residual activity (RPS6KB1 (human)): 89.4%
- residual activity (PRKX (human)): 99.3%
- residual activity (PRKACG (human)): 103%
- residual activity (FER (human)): 99.8%
- residual activity (EPHA6 (human)): 89.6%
- residual activity (CSNK1E (human)): 94.6%
- residual activity (IGF1R (human)): 103%

Structure (SMILES): COc1cc2ncc(-c3ccccc3)nc2cc1OC
- residual activity (STK24 (human)): 104%
- residual activity (LCK (human)): 93.5%
- residual activity (STK39 (human)): 88%
- residual activity (MAPKAPK3 (human)): 86.7%
- residual activity (TAOK2 (human)): 95.9%
- residual activity (CDK7 CCNH MNAT1 (human)): 109%
- residual activity (MAP4K2 (human)): 99.2%
- residual activity (PAK7 (human)): 85.6%
- residual activity (ULK1 (human)): 84.5%
- residual activity (STK16 (human)): 93.5%
- residual activity (TLK2 (human)): 96.3%
- residual activity (MAPK12 (human)): 95.5%
- residual activity (MAP3K11 (human)): 86.8%
- residual activity (CDK4 CCND3 (human)): 97.5%
- residual activity (SRC (human)): 96.1%
- residual activity (PRKCB2 (human)): 88.8%
- residual activity (PTK2B (human)): 85.9%
- residual activity (AKT2 (human)): 86.7%
- residual activity (MAPK8 (human)): 102%
- residual activity (AXL (human)): 95.2%
- residual activity (PRKCD (human)): 82.2%
- residual activity (LTK (human)): 97.9%
- residual activity (BRAF (human)): 93.2%
- residual activity (MYO3B (human)): 84.6%
- residual activity (MET (human)): 92.6%
- residual activity (TSSK1B (human)): 94.5%
- residual activity (PAK1 (human)): 91.3%
- residual activity (ULK3 (human)): 89.4%
- residual activity (PASK (human)): 98.9%
- residual activity (CLK4 (human)): 102%
- residual activity (OXSR1 (human)): 100%
- residual activity (CDK1 CCNA2 (human)): 94.8%
- residual activity (MUSK (human)): 95.9%
- residual activity (STK38 (human)): 95.9%
- residual activity (RPS6KB1 (human)): 89%
- residual activity (PRKX (human)): 97.4%
- residual activity (PRKACG (human)): 87.6%
- residual activity (FER (human)): 80%
- residual activity (EPHA6 (human)): 90.4%
- residual activity (CSNK1E (human)): 79.3%
- residual activity (IGF1R (human)): 91.1%

Structure (SMILES): CN(C)C[C@H]1CCn2c(c(C3=C(c4cn(C)c5ccccc45)C(=O)NC3=O)c3ccccc32)C1
- residual activity (STK24 (human)): 66.5%
- residual activity (LCK (human)): 96.5%
- residual activity (STK39 (human)): 102%
- residual activity (MAPKAPK3 (human)): 97.9%
- residual activity (TAOK2 (human)): 87.7%
- residual activity (CDK7 CCNH MNAT1 (human)): 83%
- residual activity (MAP4K2 (human)): 99%
- residual activity (PAK7 (human)): 100%
- residual activity (ULK1 (human)): 98.9%
- residual activity (STK16 (human)): 109%
- residual activity (TLK2 (human)): 88.4%
- residual activity (MAPK12 (human)): 102%
- residual activity (MAP3K11 (human)): 95.2%
- residual activity (CDK4 CCND3 (human)): 99.7%
- residual activity (SRC (human)): 101%
- residual activity (PRKCB2 (human)): 2.29%
- residual activity (PTK2B (human)): 95.5%
- residual activity (AKT2 (human)): 92.6%
- residual activity (MAPK8 (human)): 100%
- residual activity (AXL (human)): 99.3%
- residual activity (PRKCD (human)): 8.11%
- residual activity (LTK (human)): 101%
- residual activity (BRAF (human)): 95.2%
- residual activity (MYO3B (human)): 87.9%
- residual activity (MET (human)): 96.2%
- residual activity (TSSK1B (human)): 104%
- residual activity (PAK1 (human)): 99.8%
- residual activity (ULK3 (human)): 88.9%
- residual activity (PASK (human)): 93%
- residual activity (CLK4 (human)): 111%
- residual activity (OXSR1 (human)): 98.4%
- residual activity (CDK1 CCNA2 (human)): 67.8%
- residual activity (MUSK (human)): 85.6%
- residual activity (STK38 (human)): 96.7%
- residual activity (RPS6KB1 (human)): 20%
- residual activity (PRKX (human)): 97.8%
- residual activity (PRKACG (human)): 108%
- residual activity (FER (human)): 69.2%
- residual activity (EPHA6 (human)): 100%
- residual activity (CSNK1E (human)): 99.7%
- residual activity (IGF1R (human)): 101%
